According to ChEMBL document CHEMBL4665624, “Synthesis of 5-(4-(1H-phenanthro[9,10-d]imidazol-2-yl)benzylidene)thiazolidine-2,4-dione as promising DNA and serum albumin-binding agents and evaluation of antitumor activity” (Eur J Med Chem, 2019):

What follows are molecules tested on IGROV-1 (assay: Antitumor activity against human IGROV1 cells assessed as cell growth inhibition at 10 uM incubated for 48 hrs by sulforhodamine B assay). Details: read-out: GI.
Type: functional
`O=Cc1ccc(-c2nc3c([nH]2)-c2cccc4cccc-3c24)cc1` showed an inhibition of growth at 10 µM of 28.9%.

The molecules below were run on HCT-15 (assay: Antitumor activity against human HCT15 cells assessed as cell growth inhibition at 10 uM incubated for 48 hrs by sulforhodamine B assay). Details: read-out: GI.
Type: functional
`O=Cc1ccc(-c2nc3c([nH]2)-c2cccc4cccc-3c24)cc1` gave an inhibition of growth at 10 µM of 23.7%.

These molecules were tested on HCC 2998 (assay: Antitumor activity against human HCC2998 cells assessed as cell growth inhibition at 10 uM incubated for 48 hrs by sulforhodamine B assay). Details: read-out: GI.
Type: functional
`O=Cc1ccc(-c2nc3c([nH]2)-c2cccc4cccc-3c24)cc1` showed an inhibition of growth at 10 µM of 12.8%.

These molecules were tested on NCI-H23 (assay: Antitumor activity against human NCI-H23 cells assessed as cell growth inhibition at 10 uM incubated for 48 hrs by sulforhodamine B assay). Details: read-out: GI.
Type: functional
`O=Cc1ccc(-c2nc3c([nH]2)-c2cccc4cccc-3c24)cc1` showed an inhibition of growth at 10 µM of 14.9%.

These molecules were tested on K562 (assay: Antitumor activity against human K562 cells assessed as cell growth inhibition at 10 uM incubated for 48 hrs by sulforhodamine B assay). Details: read-out: GI.
Type: functional
With `O=Cc1ccc(-c2nc3c([nH]2)-c2cccc4cccc-3c24)cc1` the inhibition of growth at 10 µM was 16.5%.

These molecules were tested on RPMI-8226 (assay: Antitumor activity against human RPMI8226 cells assessed as cell growth inhibition at 10 uM incubated for 48 hrs by sulforhodamine B assay). Details: read-out: GI.
Type: functional
Work on `O=Cc1ccc(-c2nc3c([nH]2)-c2cccc4cccc-3c24)cc1` yielded an inhibition of growth at 10 µM of 22.8%.

These molecules were tested on HT-29 (assay: Antitumor activity against human HT-29 cells assessed as cell growth inhibition at 10 uM incubated for 48 hrs by sulforhodamine B assay). Details: read-out: GI.
Type: functional
In the case of `O=Cc1ccc(-c2nc3c([nH]2)-c2cccc4cccc-3c24)cc1`, the inhibition of growth at 10 µM is reported as < 10%.

What follows are molecules tested on UACC-62 (assay: Antitumor activity against human UACC-62 cells assessed as cell growth inhibition at 10 uM incubated for 48 hrs by sulforhodamine B assay). Details: read-out: GI.
Type: functional
`O=Cc1ccc(-c2nc3c([nH]2)-c2cccc4cccc-3c24)cc1` was tested, and the inhibition of growth at 10 µM was 19.8%.

The molecules below were run on 786-0 (assay: Antitumor activity against human 786-0 cells assessed as cell growth inhibition at 10 uM incubated for 48 hrs by sulforhodamine B assay). Details: read-out: GI.
Type: functional
With `O=Cc1ccc(-c2nc3c([nH]2)-c2cccc4cccc-3c24)cc1` the inhibition of growth at 10 µM was < 10%.

These molecules were tested on Malme-3M (assay: Antitumor activity against human MALME-3M cells assessed as cell growth inhibition at 10 uM incubated for 48 hrs by sulforhodamine B assay). Details: read-out: GI.
Type: functional
For `O=Cc1ccc(-c2nc3c([nH]2)-c2cccc4cccc-3c24)cc1`, the inhibition of growth at 10 µM was < 10%.

What follows are molecules tested on HCT-116 (assay: Antitumor activity against human HCT116 cells assessed as cell growth inhibition at 10 uM incubated for 48 hrs by sulforhodamine B assay). Details: read-out: GI.
Type: functional
Work on `O=Cc1ccc(-c2nc3c([nH]2)-c2cccc4cccc-3c24)cc1` yielded an inhibition of growth at 10 µM of 19.2%.

Each molecule was assayed on OVCAR-3 (assay: Antitumor activity against human OVCAR-3 cells assessed as cell growth inhibition at 10 uM incubated for 48 hrs by sulforhodamine B assay). Details: read-out: GI.
Type: functional
With `O=Cc1ccc(-c2nc3c([nH]2)-c2cccc4cccc-3c24)cc1` the inhibition of growth at 10 µM was 12.3%.

Each molecule was assayed on MCF7 (assay: Antitumor activity against human MCF7 cells assessed as cell growth inhibition at 10 uM incubated for 48 hrs by sulforhodamine B assay). Details: read-out: GI.
Type: functional
`O=Cc1ccc(-c2nc3c([nH]2)-c2cccc4cccc-3c24)cc1` was tested, and the inhibition of growth at 10 µM was 51.6%.

These molecules were tested on NCI/ADR-RES (assay: Antitumor activity against human NCI/ADR-RES cells assessed as cell growth inhibition at 10 uM incubated for 48 hrs by sulforhodamine B assay). Details: read-out: GI.
Type: functional
`O=Cc1ccc(-c2nc3c([nH]2)-c2cccc4cccc-3c24)cc1` was tested, and the inhibition of growth at 10 µM was < 10%.

Each molecule was assayed on HOP-92 (assay: Antitumor activity against human HOP92 cells assessed as cell growth inhibition at 10 uM incubated for 48 hrs by sulforhodamine B assay). Details: read-out: GI.
Type: functional
Molecule `O=Cc1ccc(-c2nc3c([nH]2)-c2cccc4cccc-3c24)cc1` has an inhibition of growth at 10 µM of 14%.

What follows are molecules tested on SF-295 (assay: Antitumor activity against human SF295 cells assessed as cell growth inhibition at 10 uM incubated for 48 hrs by sulforhodamine B assay). Details: read-out: GI.
Type: functional
With `O=Cc1ccc(-c2nc3c([nH]2)-c2cccc4cccc-3c24)cc1` the inhibition of growth at 10 µM was < 10%.

The molecules below were run on SF-268 (assay: Antitumor activity against human SF268 cells assessed as cell growth inhibition at 10 uM incubated for 48 hrs by sulforhodamine B assay). Details: read-out: GI.
Type: functional
Molecule `O=Cc1ccc(-c2nc3c([nH]2)-c2cccc4cccc-3c24)cc1` has an inhibition of growth at 10 µM of 13.3%.

Each molecule was assayed on OVCAR-4 (assay: Antitumor activity against human OVCAR-4 cells assessed as cell growth inhibition at 10 uM incubated for 48 hrs by sulforhodamine B assay). Details: read-out: GI.
Type: functional
In the case of `O=Cc1ccc(-c2nc3c([nH]2)-c2cccc4cccc-3c24)cc1`, the inhibition of growth at 10 µM is reported as 27.4%.

Each molecule was assayed on SNB-75 (assay: Antitumor activity against human SNB-75 cells assessed as cell growth inhibition at 10 uM incubated for 48 hrs by sulforhodamine B assay). Details: read-out: GI.
Type: functional
With `O=Cc1ccc(-c2nc3c([nH]2)-c2cccc4cccc-3c24)cc1` the inhibition of growth at 10 µM was < 10%.

The molecules below were run on MDA-MB-468 (assay: Antitumor activity against human MDA-MB-468 cells assessed as cell growth inhibition at 10 uM incubated for 48 hrs by sulforhodamine B assay). Details: read-out: GI.
Type: functional
`O=Cc1ccc(-c2nc3c([nH]2)-c2cccc4cccc-3c24)cc1` showed an inhibition of growth at 10 µM of 30.9%.

These molecules were tested on EKVX (assay: Antitumor activity against human EKVX cells assessed as cell growth inhibition at 10 uM incubated for 48 hrs by sulforhodamine B assay). Details: read-out: GI.
Type: functional
`O=Cc1ccc(-c2nc3c([nH]2)-c2cccc4cccc-3c24)cc1` was tested, and the inhibition of growth at 10 µM was 23%.

Each molecule was assayed on SNB-19 (assay: Antitumor activity against human SNB-19 cells assessed as cell growth inhibition at 10 uM incubated for 48 hrs by sulforhodamine B assay). Details: read-out: GI.
Type: functional
In the case of `O=Cc1ccc(-c2nc3c([nH]2)-c2cccc4cccc-3c24)cc1`, the inhibition of growth at 10 µM is reported as < 10%.

Each molecule was assayed on NCI-H226 (assay: Antitumor activity against human NCI-H226 assessed as cell growth inhibition at 10 uM incubated for 48 hrs by sulforhodamine B assay). Details: read-out: GI.
Type: functional
`O=Cc1ccc(-c2nc3c([nH]2)-c2cccc4cccc-3c24)cc1` gave an inhibition of growth at 10 µM of 12.4%.

What follows are molecules tested on COLO 205 (assay: Antitumor activity against human COLO205 cells assessed as cell growth inhibition at 10 uM incubated for 48 hrs by sulforhodamine B assay). Details: read-out: GI.
Type: functional
`O=Cc1ccc(-c2nc3c([nH]2)-c2cccc4cccc-3c24)cc1` was tested, and the inhibition of growth at 10 µM was < 10%.
